In ChEMBL document CHEMBL1201862, “PubChem BioAssay data set” (2004):
Calls of active or inactive are those of the source.

Columns and labels:
[1] = target: Sentrin-specific protease 1 (Homo sapiens, UniProt Q9P0U3); test: Dose response confirmation of small molecule inhibitors of the catalytic domain of the SUMO protease, SENP1 in a FRET assay.; format: functional; settings: read-out: IC50_Mean
[2] = target: T1, Tyrosine-protein phosphatase non-receptor type 11 (Homo sapiens, UniProt Q06124); test: PTPN11 enzyme inhibitors – biochemical, selectivity assay for STEP inhibitor project, dose response (AID 602367); format: functional; settings: read-out: IC50_Mean
T1 sequence (Q06124 whole entry): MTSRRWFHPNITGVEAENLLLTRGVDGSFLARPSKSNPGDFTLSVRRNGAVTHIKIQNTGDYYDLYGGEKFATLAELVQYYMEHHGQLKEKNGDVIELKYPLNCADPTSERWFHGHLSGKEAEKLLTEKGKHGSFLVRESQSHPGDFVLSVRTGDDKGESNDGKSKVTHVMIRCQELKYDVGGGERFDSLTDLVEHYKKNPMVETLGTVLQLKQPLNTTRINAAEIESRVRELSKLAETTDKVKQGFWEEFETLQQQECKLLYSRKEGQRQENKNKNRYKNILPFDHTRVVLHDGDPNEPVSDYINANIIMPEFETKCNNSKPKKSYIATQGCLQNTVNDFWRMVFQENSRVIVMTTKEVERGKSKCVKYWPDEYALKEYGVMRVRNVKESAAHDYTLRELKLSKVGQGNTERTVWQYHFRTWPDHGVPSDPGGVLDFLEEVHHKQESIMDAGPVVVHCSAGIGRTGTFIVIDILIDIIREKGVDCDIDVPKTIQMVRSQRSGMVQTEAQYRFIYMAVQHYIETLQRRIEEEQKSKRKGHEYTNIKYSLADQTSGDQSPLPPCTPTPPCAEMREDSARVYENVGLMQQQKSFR

[3] = target: T2, Tyrosine-protein phosphatase non-receptor type 5 (Homo sapiens, UniProt P54829); test: PTPN5 enzyme inhibition – biochemical, fluorescence intensity, uHTS hits, confirmation (AID 602372); format: functional; settings: read-out: IC50_Mean
T2 sequence (P54829 whole entry): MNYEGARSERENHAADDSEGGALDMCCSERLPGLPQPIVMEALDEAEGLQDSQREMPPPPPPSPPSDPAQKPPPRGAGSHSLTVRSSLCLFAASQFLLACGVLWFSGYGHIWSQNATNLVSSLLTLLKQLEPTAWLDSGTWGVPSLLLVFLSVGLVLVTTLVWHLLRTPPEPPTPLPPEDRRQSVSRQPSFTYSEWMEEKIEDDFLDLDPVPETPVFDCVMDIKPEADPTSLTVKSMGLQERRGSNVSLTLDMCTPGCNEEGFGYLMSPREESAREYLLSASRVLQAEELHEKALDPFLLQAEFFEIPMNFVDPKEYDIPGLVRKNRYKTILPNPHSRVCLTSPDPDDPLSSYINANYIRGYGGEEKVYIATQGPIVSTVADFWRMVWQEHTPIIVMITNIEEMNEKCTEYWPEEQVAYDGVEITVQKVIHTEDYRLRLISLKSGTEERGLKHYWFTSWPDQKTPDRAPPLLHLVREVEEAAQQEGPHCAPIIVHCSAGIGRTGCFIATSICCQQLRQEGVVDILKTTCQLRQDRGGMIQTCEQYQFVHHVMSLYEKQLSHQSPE

[4] = target: Dual specificity protein phosphatase 3 (Homo sapiens, UniProt P51452); test: VHR phosphatase inhibition, dose response, selectivity assay for STEP inhibitor project, biochemical (AID 602374); format: functional; settings: read-out: IC50_Mean
Chain of Dual specificity protein phosphatase 3 (P51452 whole entry): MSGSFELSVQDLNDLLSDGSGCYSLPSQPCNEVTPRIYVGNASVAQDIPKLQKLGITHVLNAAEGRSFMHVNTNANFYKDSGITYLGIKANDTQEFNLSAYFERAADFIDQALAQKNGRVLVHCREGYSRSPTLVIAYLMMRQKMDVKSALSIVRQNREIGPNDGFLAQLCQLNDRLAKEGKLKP

[5] = target: T3, Tyrosine-protein phosphatase non-receptor type 22 (Homo sapiens, UniProt Q9Y2R2); test: lymphoid phosphatase LYP inhibitors – biochemical, selectivity assay for STEP inhibitor project, dose response (AID 624241); format: functional
T3 sequence (Q9Y2R2 whole entry): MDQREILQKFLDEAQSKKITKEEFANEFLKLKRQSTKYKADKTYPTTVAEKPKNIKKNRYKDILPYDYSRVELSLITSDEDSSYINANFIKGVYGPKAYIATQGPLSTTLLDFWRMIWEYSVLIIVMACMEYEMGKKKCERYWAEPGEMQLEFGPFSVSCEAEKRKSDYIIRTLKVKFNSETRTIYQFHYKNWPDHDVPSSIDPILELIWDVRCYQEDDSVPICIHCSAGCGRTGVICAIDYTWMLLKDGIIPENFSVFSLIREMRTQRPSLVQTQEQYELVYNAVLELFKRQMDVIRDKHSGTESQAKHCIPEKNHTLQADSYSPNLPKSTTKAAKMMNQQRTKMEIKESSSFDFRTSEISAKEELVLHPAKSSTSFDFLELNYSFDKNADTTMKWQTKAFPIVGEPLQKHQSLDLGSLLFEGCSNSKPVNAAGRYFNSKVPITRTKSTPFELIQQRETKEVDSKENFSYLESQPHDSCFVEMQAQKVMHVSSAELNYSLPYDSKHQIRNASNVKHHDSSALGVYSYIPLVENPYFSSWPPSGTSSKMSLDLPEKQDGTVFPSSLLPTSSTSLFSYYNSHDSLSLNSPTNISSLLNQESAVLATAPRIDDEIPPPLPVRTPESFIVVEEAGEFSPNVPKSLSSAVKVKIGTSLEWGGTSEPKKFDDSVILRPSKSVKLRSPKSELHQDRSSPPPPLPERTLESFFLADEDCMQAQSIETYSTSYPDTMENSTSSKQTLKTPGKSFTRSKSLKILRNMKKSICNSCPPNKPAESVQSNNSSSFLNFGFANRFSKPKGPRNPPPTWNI

[6] = target: Low molecular weight phosphotyrosine protein phosphatase (Homo sapiens, UniProt P24666); format: functional; settings: read-out: IC50_Mean;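 also: Dose-response confirmation assay measuring inhibition of LMPTP enzyme activity by fluorescence intensity read-out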
Chain of Low molecular weight phosphotyrosine protein phosphatase (P24666 whole entry): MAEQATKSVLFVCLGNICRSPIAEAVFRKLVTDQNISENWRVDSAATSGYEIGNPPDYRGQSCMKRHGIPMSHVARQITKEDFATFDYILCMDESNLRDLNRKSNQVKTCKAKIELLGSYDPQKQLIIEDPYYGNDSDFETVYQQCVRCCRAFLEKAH

[7] = Luminescence Cell-Based Dose Confirmation HTS to Identify Activators of 5'UTR Stem-Loop Driven Alpha-Synuclein mRNA Translation in H4 Neuroglioblastoma Cells. [Related pubchem assays: 1829 (Project Summary), 1814 (Primary HTS)]; format: functional
[8] = Luminescence Cell-Based Dose Response HTS to Identify Activators of Luciferase Translation or Activity in H4 […] Cells. [Related pubchem assays: 1829 (Project Summary), 1814 (Primary HTS)]; format: functional
[9] = cells; format: functional, cell-based
[10] = system: H4; test: Luminescence Cell-Based Dose Response HTS to Identify Activators of 5'UTR Stem-Loop Driven Prion Protein mRNA Translation in H4 Neuroglioblastoma Cells. [Related pubchem assays: 1829 (Project Summary), 1814 (Primary HTS)]; format: functional; settings: Homo sapiens
[11] = cells; format: functional, cell-based; remark: listed apart in the source
[12] = target: ADP-ribosylation factor GTPase-activating protein 1 (Rattus norvegicus, UniProt Q62848); test: Fluorescence polarization-based biochemical high throughput dose response screening assay to identify inhibitors of ADP-ribosylation factor GTPase activating protein 1 (ARFGAP1).; format: functional
Chain of ADP-ribosylation factor GTPase-activating protein 1 (Q62848 whole entry): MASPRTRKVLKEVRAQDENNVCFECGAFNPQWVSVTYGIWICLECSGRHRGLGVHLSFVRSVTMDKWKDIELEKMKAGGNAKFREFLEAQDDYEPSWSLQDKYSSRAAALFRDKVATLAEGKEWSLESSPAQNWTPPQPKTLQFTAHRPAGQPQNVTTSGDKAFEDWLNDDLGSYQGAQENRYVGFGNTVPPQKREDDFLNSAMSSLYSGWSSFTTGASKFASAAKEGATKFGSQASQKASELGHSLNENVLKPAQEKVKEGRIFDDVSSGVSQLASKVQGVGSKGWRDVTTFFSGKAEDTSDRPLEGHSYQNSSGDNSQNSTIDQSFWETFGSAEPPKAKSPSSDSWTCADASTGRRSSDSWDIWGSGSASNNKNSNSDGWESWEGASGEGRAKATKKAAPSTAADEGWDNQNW

[13] = target: Mu-type opioid receptor (Homo sapiens, UniProt P35372); format: functional, cell-based;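 also: U2OS cells with beta-arrestin recruitment to OPRM1 by beta-gal complementation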
Chain of Mu-type opioid receptor (P35372 whole entry): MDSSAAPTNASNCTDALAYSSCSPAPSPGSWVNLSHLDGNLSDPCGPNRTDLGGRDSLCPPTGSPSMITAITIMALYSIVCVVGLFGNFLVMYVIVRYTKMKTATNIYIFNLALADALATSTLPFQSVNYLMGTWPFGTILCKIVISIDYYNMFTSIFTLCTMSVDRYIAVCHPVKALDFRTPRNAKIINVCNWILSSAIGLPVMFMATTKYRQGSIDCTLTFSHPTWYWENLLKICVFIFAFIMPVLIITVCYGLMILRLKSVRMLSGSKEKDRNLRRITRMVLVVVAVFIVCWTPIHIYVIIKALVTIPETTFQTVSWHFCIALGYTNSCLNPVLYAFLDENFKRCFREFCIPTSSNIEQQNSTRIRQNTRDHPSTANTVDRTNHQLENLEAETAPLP

[14] = target: 5-hydroxytryptamine receptor 2A (Mus musculus, UniProt P35363); format: functional, cell-based;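 also: CHO-K1 cells with tagged receptor and beta-arrestin; agonist potency measured as compound-induced activation of the receptor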
Chain of 5-hydroxytryptamine receptor 2A (P35363 whole entry): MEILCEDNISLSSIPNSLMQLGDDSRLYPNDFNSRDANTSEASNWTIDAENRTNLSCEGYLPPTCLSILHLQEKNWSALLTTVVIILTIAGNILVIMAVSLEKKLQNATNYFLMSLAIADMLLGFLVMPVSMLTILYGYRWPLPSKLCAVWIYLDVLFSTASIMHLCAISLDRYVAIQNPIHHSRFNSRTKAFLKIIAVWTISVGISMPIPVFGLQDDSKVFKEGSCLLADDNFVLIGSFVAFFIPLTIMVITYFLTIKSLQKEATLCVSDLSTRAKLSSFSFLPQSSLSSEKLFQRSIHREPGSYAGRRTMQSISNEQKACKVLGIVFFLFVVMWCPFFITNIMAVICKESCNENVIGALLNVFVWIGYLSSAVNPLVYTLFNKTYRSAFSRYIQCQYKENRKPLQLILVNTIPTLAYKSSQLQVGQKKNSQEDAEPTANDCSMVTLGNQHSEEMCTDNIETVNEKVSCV

Chain of Sentrin-specific protease 1 (Q9P0U3 whole entry, the tested form may be a part): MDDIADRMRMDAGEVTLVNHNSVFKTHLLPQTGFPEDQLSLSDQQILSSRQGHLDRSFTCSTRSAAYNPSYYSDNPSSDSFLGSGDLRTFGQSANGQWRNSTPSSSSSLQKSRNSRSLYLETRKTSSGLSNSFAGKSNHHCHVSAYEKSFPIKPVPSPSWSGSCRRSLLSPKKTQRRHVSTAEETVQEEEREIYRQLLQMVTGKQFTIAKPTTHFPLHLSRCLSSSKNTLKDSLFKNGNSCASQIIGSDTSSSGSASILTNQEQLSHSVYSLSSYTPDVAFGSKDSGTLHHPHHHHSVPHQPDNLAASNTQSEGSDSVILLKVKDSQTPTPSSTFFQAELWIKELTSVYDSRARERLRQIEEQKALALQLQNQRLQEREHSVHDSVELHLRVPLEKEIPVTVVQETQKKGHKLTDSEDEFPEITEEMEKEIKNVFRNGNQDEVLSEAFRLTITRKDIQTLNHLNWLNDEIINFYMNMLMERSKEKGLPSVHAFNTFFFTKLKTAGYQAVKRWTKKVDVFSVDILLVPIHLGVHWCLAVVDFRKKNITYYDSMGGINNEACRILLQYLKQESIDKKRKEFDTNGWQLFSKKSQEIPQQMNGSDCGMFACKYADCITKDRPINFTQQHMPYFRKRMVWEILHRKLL

In the case of COc1ccc(OC)c(CCNC(=O)c2ccc3c(=O)[nH]c4c(C(=O)NC(C)C)sc(=S)n4c3c2)c1, the IC50 [1] is reported as 20.9 µM (inactive).

For O=C(/C=C/c1ccc(Cl)cc1)NC(=S)Nc1ccc(C(=O)O)cc1, the IC50 [2] was 5.89 µM (active), the IC50 [3] was 9.21 µM (active) and the IC50 [4] was 5.4 µM (active). The IC50 [5] was 44.2 µM (inactive) and the IC50 [6] was 15.4 µM (active).

For Cc1ccc2nc(SCC(=O)c3ccccc3)nc(=O)n2c1, the EC50 [7] was 33.8 µM (active), the EC50 [8] was 11 µM (active) and the EC50 [9] was > 350 µM (not active). The EC50 [10] was 24 µM (active), the EC50 [11] was 37.8 µM (active) and the IC50 [12] was 52.5 µM (inactive).

For COc1cccc(OCC(O)CN2CCN(c3ccccn3)CC2)c1 (centres undefined), the EC50 [13] was 92.4 µM (inactive) and the EC50 [14] was 1.46 µM (active).
